Results on 23 compounds are retold here after patent US20080234262A1 (Wyeth, priority 2007, published 2008).

For one assay, the system named is prostate line LNCap. As to the kind of experiment: In vitro cell culture growth assay (MTS), LNCap.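 Note: viable cell density read by absorbance at 490 nm, growth expressed as percent of vehicle-treated cells on the same plate.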 Conditions: Homo sapiens, LNCaP, 72 h, LNCap cells, three days after drug treatment. The class given is cell-based, human.
The test system of a further assay is breast line MDA468. Description: In vitro cell culture growth assay (MTS), MDA468. The class given is cell-based, human. Conditions: Homo sapiens, 72 h, MDA468 cells, three days after drug treatment. Put shortly:
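Steps: plate cells; add inhibitors the next day; incubate 3 days; add MTS dye, which viable cells convert metabolically; measure absorbance at 490 nm; calculate percent of control growth relative to vehicle-treated cells in the same plate.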

The target in the next assay is PI3K (Homo sapiens, UniProt P42336). As to the kind of experiment: Fluorescence polarization assay for PI3K.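 Note: PI3K kinase reaction on PIP2 with ATP, 30-60 min, product sensed by GST-GRP with red probe in fluorescence polarization (mP), controls without enzyme and at zero time.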 The class given is biochemical. Conditions: PI3Kα; read-out: PI3Kα IC50.
Chain of PI3K (P42336 whole entry): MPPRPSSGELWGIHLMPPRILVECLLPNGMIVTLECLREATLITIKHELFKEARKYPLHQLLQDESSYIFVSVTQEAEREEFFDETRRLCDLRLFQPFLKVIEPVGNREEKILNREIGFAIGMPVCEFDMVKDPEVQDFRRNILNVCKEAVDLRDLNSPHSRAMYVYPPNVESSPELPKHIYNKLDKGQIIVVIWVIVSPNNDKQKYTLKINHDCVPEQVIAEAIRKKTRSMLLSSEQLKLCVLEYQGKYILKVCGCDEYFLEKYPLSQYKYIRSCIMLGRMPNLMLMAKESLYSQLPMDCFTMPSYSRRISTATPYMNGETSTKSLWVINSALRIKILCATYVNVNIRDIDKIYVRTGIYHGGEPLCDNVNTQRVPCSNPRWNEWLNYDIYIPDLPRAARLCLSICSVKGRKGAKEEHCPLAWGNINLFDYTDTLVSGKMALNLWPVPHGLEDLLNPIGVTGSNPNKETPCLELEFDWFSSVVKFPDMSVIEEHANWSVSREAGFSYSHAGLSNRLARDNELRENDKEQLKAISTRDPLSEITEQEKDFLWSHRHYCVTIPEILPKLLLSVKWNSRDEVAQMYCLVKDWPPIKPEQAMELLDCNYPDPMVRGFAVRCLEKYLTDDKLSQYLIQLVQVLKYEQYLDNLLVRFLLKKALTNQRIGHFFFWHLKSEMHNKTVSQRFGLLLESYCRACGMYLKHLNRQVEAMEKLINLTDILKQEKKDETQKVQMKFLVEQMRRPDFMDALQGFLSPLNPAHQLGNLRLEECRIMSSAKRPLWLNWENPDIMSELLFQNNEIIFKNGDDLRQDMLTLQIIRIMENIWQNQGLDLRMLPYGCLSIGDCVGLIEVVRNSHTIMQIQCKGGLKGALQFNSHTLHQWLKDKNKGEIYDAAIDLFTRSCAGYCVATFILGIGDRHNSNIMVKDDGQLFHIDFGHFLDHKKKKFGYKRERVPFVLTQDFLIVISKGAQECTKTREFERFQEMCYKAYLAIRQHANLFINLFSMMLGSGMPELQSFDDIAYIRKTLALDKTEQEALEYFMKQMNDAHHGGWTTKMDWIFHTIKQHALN
Chain of PI3K (P27986 whole entry partner): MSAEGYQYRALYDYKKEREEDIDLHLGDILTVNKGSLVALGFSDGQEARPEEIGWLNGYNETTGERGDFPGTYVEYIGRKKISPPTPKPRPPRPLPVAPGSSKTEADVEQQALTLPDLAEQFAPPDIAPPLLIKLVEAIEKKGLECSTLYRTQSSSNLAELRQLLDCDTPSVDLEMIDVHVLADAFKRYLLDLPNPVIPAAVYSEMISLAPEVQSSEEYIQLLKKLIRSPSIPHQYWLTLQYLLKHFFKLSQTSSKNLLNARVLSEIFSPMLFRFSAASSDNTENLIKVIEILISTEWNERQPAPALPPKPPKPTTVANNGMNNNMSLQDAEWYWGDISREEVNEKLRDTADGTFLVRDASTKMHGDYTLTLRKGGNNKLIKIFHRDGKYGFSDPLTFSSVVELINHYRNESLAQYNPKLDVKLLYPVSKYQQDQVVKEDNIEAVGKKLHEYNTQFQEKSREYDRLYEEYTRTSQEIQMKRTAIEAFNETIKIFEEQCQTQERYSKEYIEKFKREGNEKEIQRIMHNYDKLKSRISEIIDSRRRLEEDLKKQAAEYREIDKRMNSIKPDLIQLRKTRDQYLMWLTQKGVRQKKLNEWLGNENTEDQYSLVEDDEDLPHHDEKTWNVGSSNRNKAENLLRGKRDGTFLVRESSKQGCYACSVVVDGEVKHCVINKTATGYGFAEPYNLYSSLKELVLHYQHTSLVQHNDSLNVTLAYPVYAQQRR

As a reminder, the IC50 is the concentration needed to halve the response being measured. Take `CCNC(=O)Nc1ccc(-c2nc(N3CCOCC3)c3cnn(C4CCN(CC(F)(F)F)CC4)c3n2)cc1` [Compound 782, 1-ethyl-3-(4-{4-morpholin-4-yl-1-[1-(2,2,2-trifluoroethyl)piperidin-4-yl]-1H-pyrazolo[3,4-d]pyrimidin-6-yl}phenyl)urea]: the IC50 turned out to be 60 nM with prostate line LNCap, 300 nM in the assay on breast line MDA468 and 766 nM at PI3K.
The matching figures for `O=C(NCCF)Nc1ccc(-c2nc(N3CCOCC3)c3cnn(C4CCN(CC(F)(F)F)CC4)c3n2)cc1` [Compound 783, 1-(2-fluoroethyl)-3-(4-{4-morpholin-4-yl-1-[1-(2,2,2-trifluoroethyl)piperidin-4-yl]-1H-pyrazolo[3,4-d]pyrimidin-6-yl}phenyl)urea]: 60 nM, 390 nM and 1120 nM.
For `O=C(NCCO)Nc1ccc(-c2nc(N3CCOCC3)c3cnn(C4CCN(CC(F)(F)F)CC4)c3n2)cc1` [Compound 784, 1-(2-hydroxyethyl)-3-(4-{4-morpholin-4-yl-1-[1-(2,2,2-trifluoroethyl)piperidin-4-yl]-1H-pyrazolo[3,4-d]pyrimidin-6-yl}phenyl)urea], in that order: 100 nM, 1050 nM and 380 nM.
For `O=C(Nc1ccc(-c2nc(N3CCOCC3)c3cnn(C4CCN(CC(F)(F)F)CC4)c3n2)cc1)Nc1ccccn1` [Compound 785, 1-(4-{4-morpholin-4-yl-1-[1-(2,2,2-trifluoroethyl)piperidin-4-yl]-1H-pyrazolo[3,4-d]pyrimidin-6-yl}phenyl)-3-pyridin-2-ylurea], in that order: 3800 nM, 12000 nM and 890 nM.
`O=C(Nc1ccncc1)Nc1ccc(-c2nc(N3CCOCC3)c3cnn(C4CCN(CC(F)(F)F)CC4)c3n2)cc1` [Compound 786, 1-(4-{4-morpholin-4-yl-1-[1-(2,2,2-trifluoroethyl)piperidin-4-yl]-1H-pyrazolo[3,4-d]pyrimidin-6-yl}phenyl)-3-pyridin-4-ylurea]: the half-inhibitory concentration (IC50) in the assay on prostate line LNCap came out at 80 nM; with breast line MDA468, 1100 nM; at PI3K, 48 nM.
Take `O=C(Nc1ccc(-c2nc(N3CCOCC3)c3cnn(C4CCN(CC(F)(F)F)CC4)c3n2)cc1)Nc1cccnc1` [Compound 787, 1-(4-{4-morpholin-4-yl-1-[1-(2,2,2-trifluoroethyl)piperidin-4-yl]-1H-pyrazolo[3,4-d]pyrimidin-6-yl}phenyl)-3-pyridin-3-ylurea]: the results for the IC50 with prostate line LNCap, in the assay on breast line MDA468 and at PI3K were 27 nM, 140 nM and 40 nM, respectively.
For the compound `O=C(Nc1ccc(-c2nc(N3CCOCC3)c3cnn(C4CCN(CC(F)(F)F)CC4)c3n2)cc1)NC1CC1` [Compound 788, 1-cyclopropyl-3-(4-{4-morpholin-4-yl-1-[1-(2,2,2-trifluoroethyl)piperidin-4-yl]-1H-pyrazolo[3,4-d]pyrimidin-6-yl}phenyl)urea], the values for the IC50 with prostate line LNCap, in the assay with breast line MDA468 and on PI3K were 120 nM, 1600 nM and 734 nM, respectively.
For the compound `O=C(Nc1ccccc1)Nc1ccc(-c2nc(N3CCOCC3)c3cnn(C4CCN(CC(F)(F)F)CC4)c3n2)cc1` [Compound 789, 1-(4-{4-morpholin-4-yl-1-[1-(2,2,2-trifluoroethyl)piperidin-4-yl]-1H-pyrazolo[3,4-d]pyrimidin-6-yl}phenyl)-3-phenylurea], the 50% inhibitory concentration (IC50) in the assay with prostate line LNCap came to 100 nM; in the assay on breast line MDA468 it was 900 nM; at PI3K, 18 nM.
The matching figures for `O=C(NCCF)Nc1ccc(-c2nc(N3CCOCC3)c3cnn(CC(F)(F)F)c3n2)cc1` [Compound 790, 1-(2-fluoroethyl)-3-{4-[4-morpholin-4-yl-1-(2,2,2-trifluoroethyl)-1H-pyrazolo[3,4-d]pyrimidin-6-yl]phenyl}urea]: 60 nM, 150 nM and 314 nM.
The matching figures for `O=C(NCCO)Nc1ccc(-c2nc(N3CCOCC3)c3cnn(CC(F)(F)F)c3n2)cc1` [Compound 791, 1-(2-hydroxyethyl)-3-{4-[4-morpholin-4-yl-1-(2,2,2-trifluoroethyl)-1H-pyrazolo[3,4-d]pyrimidin-6-yl]phenyl}urea]: 220 nM, 260 nM and 136 nM.
For `O=C(Nc1ccc(-c2nc(N3CCOCC3)c3cnn(CC(F)(F)F)c3n2)cc1)Nc1cccnc1` [Compound 792, 1-{4-[4-morpholin-4-yl-1-(2,2,2-trifluoroethyl)-1H-pyrazolo[3,4-d]pyrimidin-6-yl]phenyl}-3-pyridin-3-ylurea], in that order: below 27 nM, below 27 nM and 10 nM.
On to `CNC(=O)Nc1ccc(-c2nc(N3CCOCC3)c3cnn(C4CCN(CC#N)CC4)c3n2)cc1` [Compound 793, 1-(4-{1-[1-(cyanomethyl)piperidin-4-yl]-4-morpholin-4-yl-1H-pyrazolo[3,4-d]pyrimidin-6-yl}phenyl)-3-methylurea], for which the half-inhibitory concentration (IC50) in the assay with prostate line LNCap was 1010 nM; in the assay with breast line MDA468, 1200 nM; at PI3K it was 76 nM.
`CNC(=O)Nc1ccc(-c2nc(N3CCOCC3)c3cnn(C4CCN(CC(=O)OC)CC4)c3n2)cc1` [Compound 794, methyl [4-(6-{4-[(methylcarbamoyl)amino]phenyl}-4-morpholin-4-yl-1H-pyrazolo[3,4-d]pyrimidin-1-yl)piperidin-1-yl]acetate]: the values for the 50% inhibitory concentration (IC50) in the assay with prostate line LNCap, with breast line MDA468 and at PI3K were 140 nM, 500 nM and 126 nM, respectively.
For `CCOC(=O)CN1CCC(n2ncc3c(N4CCOCC4)nc(-c4ccc(NC(=O)NC)cc4)nc32)CC1` [Compound 795, ethyl [4-(6-{4-[(methylcarbamoyl)amino]phenyl}-4-morpholin-4-yl-1H-pyrazolo[3,4-d]pyrimidin-1-yl)piperidin-1-yl]acetate], in that order: 102 nM, 420 nM and 158 nM.
The matching figures for `CNC(=O)Nc1ccc(-c2nc(N3CCOCC3)c3cnn(C4CCN(CC5OCCO5)CC4)c3n2)cc1` [Compound 797, 1-(4-{1-[1-(1,3-dioxolan-2-ylmethyl)piperidin-4-yl]-4-morpholin-4-yl-1H-pyrazolo[3,4-d]pyrimidin-6-yl}phenyl)-3-methylurea]: 103 nM, 300 nM and 155 nM.
For `CNC(=O)Nc1ccc(-c2nc(N3CCOCC3)c3cnn(C4CCN(CC(=O)O)CC4)c3n2)cc1` [Compound 798, [4-(6-{4-[(methylcarbamoyl)amino]phenyl}-4-morpholin-4-yl-1H-pyrazolo[3,4-d]pyrimidin-1-yl)piperidin-1-yl]acetic acid], in that order: above 60000 nM, above 60000 nM and 438 nM.
Take `C=CCN1CCC(n2ncc3c(N4CCOCC4)nc(-c4ccc(NC(=O)NC)cc4)nc32)CC1` [Compound 799, 1-{4-[1-(1-allylpiperidin-4-yl)-4-morpholin-4-yl-1H-pyrazolo[3,4-d]pyrimidin-6-yl]phenyl}-3-methylurea]: the IC50 was determined as 140 nM in the assay with prostate line LNCap, 510 nM in the assay on breast line MDA468 and 72 nM on PI3K.
Take `CNC(=O)Nc1ccc(-c2nc(N3CCOCC3)c3cnn(C4CCN(C(=O)OCCOC)CC4)c3n2)cc1` [Compound 800, 2-methoxyethyl 4-(6-{4-[(methylcarbamoyl)amino]phenyl}-4-morpholin-4-yl-1H-pyrazolo[3,4-d]pyrimidin-1-yl)piperidine-1-carboxylate]: the IC50 in the assay with prostate line LNCap was determined as 140 nM; in the assay on breast line MDA468, 260 nM; on PI3K, 119 nM.
The matching figures for `CC#CCOC(=O)N1CCC(n2ncc3c(N4CCOCC4)nc(-c4ccc(NC(=O)NC)cc4)nc32)CC1` [Compound 801, but-2-yn-1-yl 4-(6-{4-[(methylcarbamoyl)amino]phenyl}-4-morpholin-4-yl-1H-pyrazolo[3,4-d]pyrimidin-1-yl)piperidine-1-carboxylate]: 31 nM, 120 nM and 50 nM.
In the case of `CNCCOC(=O)N1CCC(n2ncc3c(N4CCOCC4)nc(-c4ccc(NC(=O)NC)cc4)nc32)CC1` [Compound 802, 2-(methylamino)ethyl 4-(6-{4-[(methylcarbamoyl)amino]phenyl}-4-morpholin-4-yl-1H-pyrazolo[3,4-d]pyrimidin-1-yl)piperidine-1-carboxylate], the IC50 in the assay with prostate line LNCap is 10000 nM; with breast line MDA468, 5500 nM; on PI3K, 181 nM.
For `CNC(=O)Nc1ccc(-c2nc(N3CCOCC3)c3cnn(C4CCN(C(=O)OCCN(C)C)CC4)c3n2)cc1` [Compound 803, 2-(dimethylamino)ethyl 4-(6-{4-[(methylcarbamoyl)amino]phenyl}-4-morpholin-4-yl-1H-pyrazolo[3,4-d]pyrimidin-1-yl)piperidine-1-carboxylate], in that order: 1000 nM, 1000 nM and 173 nM.
For `CNC(=O)Nc1ccc(-c2nc(N3CCOCC3)c3cnn(C4CCN(C(=O)OCCBr)CC4)c3n2)cc1` [Compound 804, 2-bromoethyl 4-(6-{4-[(methylcarbamoyl)amino]phenyl}-4-morpholin-4-yl-1H-pyrazolo[3,4-d]pyrimidin-1-yl)piperidine-1-carboxylate], in that order: 700 nM, 800 nM and 140 nM.
As for `CCOC(=O)N1CCC(n2ncc3c(N4CCOCC4)nc(-c4ccc(NC(=O)OC)cc4)nc32)CC1` [Compound 805, ethyl 4-(6-{4-[(methoxycarbonyl)amino]phenyl}-4-morpholin-4-yl-1H-pyrazolo[3,4-d]pyrimidin-1-yl)piperidine-1-carboxylate], the figures for the half-inhibitory concentration (IC50) in the assay on prostate line LNCap, with breast line MDA468 and on PI3K were 510 nM, 800 nM and 2670 nM, respectively.
